# In patent US20230159899A1, “DEVICES AND METHODS FOR SIMULATING A FUNCTION OF LIVER TISSUE” (EMULATE, INC., priority 2015, published 2023):
# Read-outs that look alike come from different tables or passages of the source.
# How the values were obtained:
# Human Liver-on-Chip [1] = type: in vitro ADME
# Excerpt: FIG. 83 provides a graph measuring a low clearance compound Antipyrine in a Clearance assay in microfluidic “Human Liver-on-Chip” under continuous flow.
# FIG. 84 provides a graph measuring low clearance compound Antipyrine in a Clearance assay in microfluidic “Human Liver-on-Chip” under non-dynamic conditions.
# Each drug molecule has a limited time to interact with hepatocytes, i.e. an interaction time. Under conditions of flow, the interaction time is reduced. However the interaction time can be increased by either using non-dynamic conditions (absence of flow) or by reticulating the media containing the drug. The present invention contemplates both embodiments for increasing interaction time, and in particular for low clearance compounds. […] See, FIGS. 83-84.
# Under dynamic conditions: Antipyrine medium removed from the Liver-on-Chip at 5 sample points over 10 hours of incubation, then again after 25 hours of incubation, was tested for an amount (%) of remaining compound. After 25 hours, around 90% of the compound remained in the media. See, FIG. 83.
# Under non-dynamic conditions: 50 μl (total) of Antipyrine medium in the Liver-on-Chip was tested for an amount (%) of remaining compound, after incubation for 24 hours and 48 hours. At 48 hours, around 100% of the compound appeared to be present in the media. […]
# human NTCP (SLC10A1) = biological target: T1, human NTCP (SLC10A1) (Homo sapiens, UniProt Q14973); conditions: human NTCP (SLC10A1) expressed in HEK293 cells; read-out: IC(50), inhibition of taurocholate uptake; cited from earlier work
# T1 sequence (Q14973 1-349): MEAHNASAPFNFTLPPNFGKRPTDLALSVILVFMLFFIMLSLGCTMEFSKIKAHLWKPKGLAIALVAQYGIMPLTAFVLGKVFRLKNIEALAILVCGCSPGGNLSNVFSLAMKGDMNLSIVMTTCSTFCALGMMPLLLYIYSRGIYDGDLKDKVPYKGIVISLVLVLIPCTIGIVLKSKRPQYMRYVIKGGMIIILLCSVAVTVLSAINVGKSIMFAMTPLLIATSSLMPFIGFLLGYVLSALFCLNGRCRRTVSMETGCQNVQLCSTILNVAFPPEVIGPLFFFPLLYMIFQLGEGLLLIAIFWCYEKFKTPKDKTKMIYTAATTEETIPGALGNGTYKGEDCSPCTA
# [2] = system: hepatocytes with liver sinusoidal endothelial cells (LSEC); test: Modified Human Liver-on-Chip with LSEC only, hepatocytes only and co-culture areas, visual observation; type: cell-based; conditions: Bosentan at 11 μM, 3 days of treatment
# Excerpt: (§1) One contemplated difference between unsuccessful modeling experiments i.e. measuring cell death by LDH release, as in FIG. 75 vs. successful modeling measuring reduced cell function by a reduction in albumin secretion, as in FIG. 76, was potential cross-talk (e.g. exchange of secretions or physical cell-cell interactions) between Hepatocyte and liver sinusoidal endothelial cells (LSEC) after treatment with Bosentan. Therefore, a Human Liver-on-Chip was designed and seeded with areas of LSEC only and hepatocytes only, allowing a co-culture area in between, see, micrograph in FIG. 77. […] Therefore, co-culturing with LSEC increases hepatocytes sensitivity to Bosentan in these microfluidic HUMAN Liver-on-Chips.
# [3] = system: Na(+)-dependent taurocholate uptake; conditions: human suspended hepatocytes; read-out: IC(50), inhibition of Na(+)-dependent taurocholate uptake; cited from earlier work
# Human Liver-on-Chip [4] = type: cell-based; conditions: 3 days
# Description: (§2) FIGS. 75A-75C provides graphs measuring Bosentan Toxicity as a percentage of LDH Leakage in three different species of microfluidic chips: FIG. 75A “RAT Liver-on-Chip” (7 days of treatment); FIG. 75B microfluidic “DOG Liver-on-Chip” (7 days of treatment); and FIG. 75C microfluidic “Human Liver-on-Chip” (3 days of treatment) increasing concentrations from 1.2 (1.3 for human)-100 μM. Samples were removed from the hepatocyte channel and the LSEC channel of the microfluidic chip with a sample from a plate sandwich culture shown for comparison.
# (§3) An exemplary tool compound was chosen for a pilot study, as an exemplary step 1: Bosentan (Tracleer), see, FIG. 74 for an exemplary chemical structure. […] Step 2: RAT and DOG “Liver-on-Chip” models were chosen for comparison to a HUMAN “Liver-on-Chip”. Step 3: A concentration range of 1.2 to 100 μM Bosentan was selected. Step 4, a first type of mechanism, e.g. exemplary LDH leakage was chosen for analysis of toxicity. FIG. 75 provides graphs measuring Bosentan Toxicity as a percentage of LDH Leakage in three different species of microfluidic chips: A) “RAT Liver-on-Chip” (7 days of treatment); B) microfluidic “DOG Liver-on-Chip” (7 days of treatment); and C) microfluidic “Human Liver-on-Chip” (3 days of treatment) increasing concentrations from 1.2 (1.3 for human)-100 μM. […]
# DOG Liver-on-Chip [5] = type: cell-based; conditions: 7 days
# Description: as §2, §3
# [6] = system: Na(+)-dependent taurocholate uptake; conditions: rat suspended hepatocytes; read-out: IC(50), inhibition of Na(+)-dependent taurocholate uptake; cited from earlier work
# Human Liver-on-Chip [7] = type: cell-based
# Description: (§4) FIGS. 76A-76C provides graphs measuring Bosentan Toxicity as Albumin Secretion in three different species of microfluidic chips: FIG. 76A “RAT Liver-on-Chip”; FIG. 76B “DOG Liver-on-Chip”; increasing concentrations from 1.2-100 μM and FIG. 76C “Human Liver-on-Chip” increasing concentrations from 0.4-100 μM. Samples were removed from the microfluidic chip with a sample from a plate sandwich culture shown for comparison.
# (§5) Thus, for step 4, one exemplary toxicity mechanism is a loss of albumin secretion.
# as §1
# RAT Liver-on-Chip = test: Bosentan toxicity as LDH leakage, RAT Liver-on-Chip; type: cell-based; conditions: 1.2-100 μM
# Description: as §2, §3
# [8] = biological target: T2, rat Na(+)-dependent taurocholate co-transporting polypeptide (Ntcp/Slc10a1) (Rattus norvegicus, UniProt P26435); conditions: rat Ntcp/Slc10a1 expressed in HEK293 cells; read-out: IC(50), inhibition of taurocholate uptake; cited from earlier work
# T2 sequence (P26435 1-362): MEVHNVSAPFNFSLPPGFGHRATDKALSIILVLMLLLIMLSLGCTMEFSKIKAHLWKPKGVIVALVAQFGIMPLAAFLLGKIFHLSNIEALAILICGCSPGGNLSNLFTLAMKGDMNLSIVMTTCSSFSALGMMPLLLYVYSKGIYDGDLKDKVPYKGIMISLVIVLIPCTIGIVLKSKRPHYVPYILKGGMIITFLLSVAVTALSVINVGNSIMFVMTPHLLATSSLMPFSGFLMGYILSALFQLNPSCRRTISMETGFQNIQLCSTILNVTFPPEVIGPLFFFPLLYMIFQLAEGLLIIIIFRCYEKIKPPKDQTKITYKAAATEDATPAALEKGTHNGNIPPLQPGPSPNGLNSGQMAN
# DOG Liver-on-Chip [9] = test: Bosentan toxicity as albumin secretion, DOG Liver-on-Chip; type: cell-based
# Description: as §4, §5
# [10] = clinical trials, cited from earlier work
# [11] = reported in literature; cited from earlier work
# Rat Stellate Cells = test: Stellate cell activation in quadruple-culture Rat Liver-on-Chip (α-SMA staining); type: cell-based; conditions: 1 ng/ml for 48 hours, from Day 7
# Description: FIGS. 82A-82B provides a micrograph of isolated Rat Stellate Cells that were seeded within a microfluidic Quadruple-culture “Rat Liver-on-Chip”. […] DAPI (blue) stained nuclei.
# A quadruple-culture microfluidic Rat Liver-on-Chip at Day 7 has viable Stellate cells.
compound,measurement,setting,value
Cc1cc(=O)n(-c2ccccc2)n1C [Antipyrine],amount of remaining compound in the media,"Human Liver-on-Chip [1]; dynamic conditions (continuous flow), after 25 hours",around 90%
same,amount of remaining compound in the media,"Human Liver-on-Chip [1]; non-dynamic conditions, 50 μl medium, at 48 hours",around 100%
COc1ccccc1Oc1c(NS(=O)(=O)c2ccc(C(C)(C)C)cc2)nc(-c2ncccn2)nc1OCCO [Bosentan],IC50,human NTCP (SLC10A1),24 µM
same,"hepatocyte degradation, LSEC area or area of hepatocytes alone",[2],not in either the LSEC area or area of hepatocytes alone
same,"visual observation, co-culture area of hepatocytes with LSEC",[2],significant hepatocyte degradation
same,IC50,[3],30 µM
same,LDH leakage: concentration at which hepatocytes on plates showed an effect,Human Liver-on-Chip [4],100 µM
same,concentration at which LDH effect was observed (the same as for loss of albumin secretion),Human Liver-on-Chip [4],either 3.7 μM or 11.1 μM
same,LDH leakage: dose up to which there was a lack of effects,DOG Liver-on-Chip [5],100 µM
same,IC50,[6],5.4 µM
same,dose response of albumin secretion,Human Liver-on-Chip [7],clear dose response
same,"LDH leakage, hepatocytes and LSEC channel of chip",RAT Liver-on-Chip; 7 days of treatment,no toxicity effects
same,"LDH toxicity, rat hepatocytes on conventional plates",RAT Liver-on-Chip; plate sandwich culture,does not show LDH toxicity
same,IC50,[8],0.71 µM
same,albumin secretion by DOG hepatocytes,DOG Liver-on-Chip [9]; 11.1 μM Bosentan,relatively constant amounts of albumin
same,dose response associated with albumin secretion (loss of albumin secretion),"DOG Liver-on-Chip [9]; 1.2-100 μM, fluid samples from the upper chamber",clear dose response
same,elevations in serum Alanine aminotransferase (ALT),[10]; patients who developed hepatotoxicity,greater than 3 fold
same,human patients treated who developed hepatotoxicity,[10],8-18%
same,hepatotoxicity in treated rats,[11],do not develop hepatotoxicity
TGFβ-1: factor used to activate Stellate cells,expression of activation marker Alpha-smooth muscle actin (α-SMA),Rat Stellate Cells,increased (strong) expression
